Measured values reported in article PMC4321816 (Chemistry & biology, 2011).
Residue numbers refer to the chain shown, from its start.

How the values were obtained:
[1] = target: T1, PhnA (phosphonoacetate hydrolase; PhnA-N-His) (Sinorhizobium meliloti, UniProt Q92UV8, T68A); assay: co-crystal structure, […] Å; format: binding; conditions: with 2 mM ZnCl2; active site, phosphonate at M2, carboxylate at M1
T1 sequence (Q92UV8 1-424 T68A): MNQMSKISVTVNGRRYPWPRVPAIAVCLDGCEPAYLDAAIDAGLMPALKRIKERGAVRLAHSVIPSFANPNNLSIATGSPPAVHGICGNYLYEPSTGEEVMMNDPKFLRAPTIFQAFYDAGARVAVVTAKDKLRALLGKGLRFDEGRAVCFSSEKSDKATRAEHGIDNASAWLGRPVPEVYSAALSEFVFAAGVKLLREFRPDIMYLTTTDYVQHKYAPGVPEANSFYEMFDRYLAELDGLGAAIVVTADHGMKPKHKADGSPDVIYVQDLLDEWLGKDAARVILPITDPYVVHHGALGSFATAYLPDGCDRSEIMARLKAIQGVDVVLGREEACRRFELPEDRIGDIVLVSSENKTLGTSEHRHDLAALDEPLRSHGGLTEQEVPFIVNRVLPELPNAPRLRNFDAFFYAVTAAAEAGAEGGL

[2] = target: T2, PhnA (phosphonoacetate hydrolase; PhnA-N-His) (Sinorhizobium meliloti, UniProt Q92UV8); assay: co-crystal structure, […] Å; format: binding; conditions: covalent; transition state mimic on Thr68, di-zinc active site
T2 sequence (Q92UV8 1-424): T1 sequence (Q92UV8 1-424 T68A) with A68T

[3] = target: T2, PhnA (phosphonoacetate hydrolase; PhnA-N-His); conditions: formed by turnover of phosphonoacetate; bidentate to metal M1

Structure (SMILES): O=C(O)CP(=O)(O)O [phosphonoacetate]
- co-crystal structure, 2.0 Å [1]: Crystals for the T68A mutant showed robust density for PnA in the active site

Structure (SMILES): [O]=[V]([OH])([OH])[OH] [vanadate]
- co-crystal structure, 1.8 Å (Table 1) [2]: we have determined the co-crystal structure of a covalent complex with orthovanadate

Structure (SMILES): CC(=O)O [acetate]
- crystal structure, 2.0 Å, crystals soaked with phosphonoacetate [3]: electron density consistent with an acetate ion bound to the M1 metal ion
